Measured values from the supplement of paper PMC12317010.

Test: collision cross section in nitrogen (drift tube, single-field); higher = larger gas-phase ion size
[1] = ion type: [M+H], ion source: APCI, ion mode: Positive
[2] = ion type: [M+H], ion source: ESI, ion mode: Positive
[3] = ion type: [M+Na], ion source: ESI, ion mode: Positive
[4] = ion type: [M-H], ion source: ESI, ion mode: Negative
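Also: chemical standards at 10 µM analysed by drift tube IMS-QTOF MS in about 3.95 torr nitrogen, mean of duplicate injections differing ≤1%, mass error below 10 ppm.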

SMILES	collision cross section in nitrogen [2] [Å²]	collision cross section in nitrogen [4] [Å²]	collision cross section in nitrogen (ion type: [M+], ion source: APCI, ion mode: Positive) [Å²]	collision cross section in nitrogen [1] [Å²]	collision cross section in nitrogen [3] [Å²]
COc1cc(OC)nc(Oc2cccc(Oc3nc(OC)cc(OC)n3)c2C(=O)O)n1 [Bispyribac-sodium]	198.5	187.4	–	198.3	198.6
N=C1NC(=N)c2ccccc21 [1H-Isoindole-1,3(2H)-diimine]	126.4	–	–	–	–
CO/C=C(/C(=O)OC)c1ccccc1Oc1cc(Oc2ccccc2C#N)ncn1 [Azoxystrobin]	195	–	–	196.5	199
CC(=O)c1cccnc1 [3-Acetylpyridine]	–	–	–	123.6	–
O=c1[nH]c2ccccc2n1C1CCN(CCCC(c2ccc(F)cc2)c2ccc(F)cc2)CC1 [Pimozide]	211.8	215.8	–	211.9	217.6
COc1cc(OC)nc(NC(=O)NS(=O)(=O)c2ncccc2OCC(F)(F)F)n1 [Trifloxysulfuron-sodium]	192	190.2	–	–	194.5
CC1(C)[C@H](/C=C(\Cl)C(F)(F)F)[C@@H]1C(=O)O[C@@H](C#N)c1cccc(Oc2ccccc2)c1 [lambda-Cyhalothrin]	–	–	–	–	190.4
CNC(=O)Oc1ccc(N(C)C)c(C)c1 [Aminocarb]	152.2	–	–	151.6	155.8
CNC(=O)Oc1cccc2c1OC(C)(C)C2 [Carbofuran]	–	–	–	–	157.8
COc1cc2c(c(OC)c1OC)-c1ccc(OC)c(=O)cc1[C@@H](NC(C)=O)CC2 [Colchicine]	195.9	197.3	–	197	204.3
Cc1cc(Cl)ccc1O [4-Chloro-2-methylphenol]	–	124.8	–	–	–
Oc1ccc(Cl)cc1 [4-Chlorophenol]	–	120.2	–	–	–
CCCCCCCCCCCCCCCCCC(=O)OCC(O)CO (centres undefined) [Glycerol 1-monostearate]	–	–	–	–	201.2

More lines, main results first:

collision cross section in nitrogen [2] [Å²]	collision cross section in nitrogen [4] [Å²]	collision cross section in nitrogen (ion type: [M+], ion source: APCI, ion mode: Positive) [Å²]	SMILES	collision cross section in nitrogen [1] [Å²]	collision cross section in nitrogen [3] [Å²]
121.6	117.2	–	[O-][n+]1ccc(Cl)cc1 [4-Chloropyridine 1-oxide]	–	–
204.8	206.7	–	CC(=O)OCC(=O)[C@@]12N=C(C)O[C@@H]1C[C@H]1[C@@H]3CCC4=CC(=O)C=C[C@]4(C)[C@H]3[C@@H](O)C[C@@]12C [Deflazacort]	205.2	213.4
214.6	207.8	–	CO[C@@H]1COCC[C@@H]1N[C@@H]1CC[C@@](C(=O)N2CCc3ncc(C(F)(F)F)cc3C2)(C(C)C)C1 [MK-812]	–	219.6
–	187	–	CCCCC(CC)COP(=O)(O)OCC(CC)CCCC (centres undefined) [Bis(2-ethylhexyl) phosphate]	–	201
150.5	–	148.1	COc1ccc(Nc2ccccc2)c(C)c1 [4-Methoxy-2-methyl-N-phenylaniline]	150.5	–
–	173.9	–	Cc1c(N(C)CS(=O)(=O)O)c(=O)n(-c2ccccc2)n1C [Dipyrone monohydrate]	–	–
192.4	–	–	c1ccc(C(O[C@@H]2CCCN(CCc3ccc4c(c3)OCO4)C2)c2ccccc2)cc1 [Zamifenacin]	192.3	195.9
146.7	142.4	–	O=S(=O)(O)c1ccc(O)c2ncccc12 [8-Hydroxyquinoline-5-sulfonic acid hydrate (1:x)]	–	–
138.4	–	–	Cc1c(Cl)c(=O)oc2cc(O)ccc12 [3-Chloro-7-hydroxy-4-methyl-2-benzopyrone]	–	–
166.9	172.2	–	CC(=O)CC(c1ccccc1)c1c(O)c2ccccc2oc1=O (centres undefined) [Warfarin]	167.4	179.1
–	177.5	–	CC(C)CCCCCCCCCCCCCCC(=O)O [16-Methylheptadecanoic acid]	–	–
